Laboratory results: PMC11378297, “Discovery and Profiling of New Multimodal Phenylglycinamide Derivatives as Potent Antiseizure and Antinociceptive Drug Candidates” (ACS Chemical Neuroscience, 2024)
Where two headings read alike, the source gives them in different places.

Columns and labels:
[1] = molecular target: T1, Voltage-Gated Sodium channel hNav1.3 (Homo sapiens, UniProt Q9NY46); assay: human sodium ion channel cell based automated patch clamp assay, hNav1.3
T1 construct: Eurofins Discovery (St. Charles, MO, USA)
Description: (§1) Therefore, as a part of the more detailed functional characterization using automated patch clamp method, we tested the influence of (R)-32 on sodium currents mediated by several Navx channels comprising 5 different human subunits, namely, Nav1.1, Nav1.2, Nav1.3, Nav1.6, and Nav1.7, which are involved in both seizure and/or pain modulation.[74],[80],[81] As summarized in Tables S4–S8, (R)-32 starting from 10 μM effectively and in concentration-dependent manner decreased sodium currents mediated by all aforementioned sodium channel subunits. Furthermore, (R)-32 appeared to bind exclusively to sodium channels that are in an inactivated state (see pulse 2 in Tables S4–S8), but not to the channels that are in an open state (pulse 1) (for additional details, see Supporting Information).
(§2) Human sodium ion channels cell based automated patch clamp assay
(§3) Human sodium ion channels cell based automated patch clamp assays: sodium channels exist in, a) a resting or closed state at -120 mV, b) a transient open state that inactivates to c) inactivated state at -10 mV. Sodium current inhibition within 1-2 ms of channel opening at 0 mV is open channel inhibition (pulse 1). In order to completely inactivate the sodium channels and facilitate inactivated state-dependent binding of the drug, the channels were kept at […] ( -10 mV) longer (pulsed for 500 ms) and then stepped back to -120 mV for 10 ms to recover from inactivation into resting or closed state (but the channels that had drug bound to them will not recover from inactivation and will not open) before stepping to -10 mV for 50 ms (pulse 2) to mea sure sodium channels that are available to open. The higher inhibition seen at pulse 2 is due to inactivated state -dependent inhibition. Pulse 1 and 2 are used to investigate drug binding to the open state and inactivated state of the Na channels, respectively. Each concentration of compound is applied for 5 minutes. The results obtained for (R)-32 are summerized in Tables S4–S8. […]
(§4) Compound Concentration Measurement % Inhibition
(§5) Data interpretation: Results showing inhibition greater than 50% are considered to represent significant effects of test compound and have been bolded for (R)-32 for better visualization. The studies were carried out in Eurofins Discovery (St. Charles, MO, USA).

[2] = molecular target: T2, Voltage-Gated Sodium channel hNav1.1 (Homo sapiens, UniProt P35498); assay: human sodium ion channel cell based automated patch clamp assay, hNav1.1
T2 construct: Eurofins Discovery (St. Charles, MO, USA)
Description: as §1, §2
Human sodium ion channels cell based automated patch clamp assays: sodium channels exist in, a) a resting or closed state at -120 mV, b) a transient open state that inactivates to c) inactivated state at -10 mV. Sodium current inhibition within 1-2 ms of channel opening at 0 mV is open channel inhibition (pulse 1). In order to completely inactivate the sodium channels and facilitate inactivated state-dependent binding of the drug, the channels were kept at […] ( -10 mV) longer (pulsed for 500 ms) and then stepped back to -120 mV for 10 ms to recover from inactivation into resting or closed state (but the channels that had drug bound to them will not recover from inactivation and will not open) before stepping to -10 mV for 50 ms (pulse 2) to mea sure sodium channels that are available to open. The higher inhibition seen at pulse 2 is due to inactivated state -dependent inhibition. Pulse 1 and 2 are used to investigate drug binding to the open state and inactivated state of the Na channels, respectively. Each concentration of compound is applied for 5 minutes. The results obtained for (R)-32 are summerized in Tables S4–S8.
Table S4. Effect of the (R)-32 on subunit Nav1.1.
Voltage-Gated Sodium channel hNav1.1
as §4, §5

[3] = molecular target: T3, Voltage-Gated Sodium channel hNav1.6 (Homo sapiens, UniProt Q9UQD0); assay: human sodium ion channel cell based automated patch clamp assay, hNav1.6
T3 construct: Eurofins Discovery (St. Charles, MO, USA)
Description: as §1, §2, §3, §4, §5

[4] = molecular target: T4, Voltage-Gated Sodium channel hNav1.7 (Homo sapiens, UniProt Q15858); assay: human sodium ion channel cell based automated patch clamp assay, hNav1.7
T4 construct: Eurofins Discovery (St. Charles, MO, USA)
Description: Human sodium ion channels cell based automated patch clamp assays: sodium channels exist in, a) a resting or closed state at -120 mV, b) a transient open state that inactivates to c) inactivated state at -10 mV. Sodium current inhibition within 1-2 ms of channel opening at 0 mV is open channel inhibition (pulse 1). In order to completely inactivate the sodium channels and facilitate inactivated state-dependent binding of the drug, the channels were kept at open state ( -10 mV) longer (pulsed for 500 ms) and then stepped back to -120 mV for 10 ms to recover from inactivation into resting or closed
open) before stepping to -10 mV for 50 ms (pulse 2) to mea sure sodium channels that are available to open. […] Pulse 1 and 2 are used to investigate drug binding to the open state and inactivated state of the Na channels, respectively. Each concentration of compound is applied for 5 minutes.

[5] = hNav1.3, Pulse 1 (open state), read-out: % Inhibition Mean
[6] = hNav1.3, Pulse 1 (open state), read-out: % Inhibition n1
[7] = hNav1.3, Pulse 1 (open state), read-out: % Inhibition n2
[8] = hNav1.3, Pulse 2 (inactivated state), read-out: % Inhibition Mean
[9] = hNav1.3, Pulse 2 (inactivated state), read-out: % Inhibition n1
[10] = hNav1.3, Pulse 2 (inactivated state), read-out: % Inhibition n2
[11] = hNav1.1, Pulse 1 (open state), read-out: % Inhibition Mean
[12] = hNav1.1, Pulse 1 (open state), read-out: % Inhibition n1
[13] = hNav1.1, Pulse 1 (open state), read-out: % Inhibition n2
[14] = hNav1.1, Pulse 2 (inactivated state), read-out: % Inhibition Mean
[15] = hNav1.1, Pulse 2 (inactivated state), read-out: % Inhibition n1
[16] = hNav1.1, Pulse 2 (inactivated state), read-out: % Inhibition n2
[17] = hNav1.6, Pulse 1 (open state), read-out: % Inhibition Mean
[18] = hNav1.6, Pulse 1 (open state), read-out: % Inhibition n1
[19] = hNav1.6, Pulse 1 (open state), read-out: % Inhibition n2
[20] = hNav1.6, Pulse 2 (inactivated state), read-out: % Inhibition Mean
[21] = hNav1.6, Pulse 2 (inactivated state), read-out: % Inhibition n1
[22] = hNav1.6, Pulse 2 (inactivated state), read-out: % Inhibition n2
[23] = hNav1.7, Pulse 1 (open state), read-out: % Inhibition Mean
[24] = hNav1.7, Pulse 1 (open state), read-out: % Inhibition n1
[25] = hNav1.7, Pulse 1 (open state), read-out: % Inhibition n2
[26] = hNav1.7, Pulse 2 (inactivated state), read-out: % Inhibition Mean
[27] = hNav1.7, Pulse 2 (inactivated state), read-out: % Inhibition n1
[28] = hNav1.7, Pulse 2 (inactivated state), read-out: % Inhibition n2

T4 sequence (Q15858 whole entry): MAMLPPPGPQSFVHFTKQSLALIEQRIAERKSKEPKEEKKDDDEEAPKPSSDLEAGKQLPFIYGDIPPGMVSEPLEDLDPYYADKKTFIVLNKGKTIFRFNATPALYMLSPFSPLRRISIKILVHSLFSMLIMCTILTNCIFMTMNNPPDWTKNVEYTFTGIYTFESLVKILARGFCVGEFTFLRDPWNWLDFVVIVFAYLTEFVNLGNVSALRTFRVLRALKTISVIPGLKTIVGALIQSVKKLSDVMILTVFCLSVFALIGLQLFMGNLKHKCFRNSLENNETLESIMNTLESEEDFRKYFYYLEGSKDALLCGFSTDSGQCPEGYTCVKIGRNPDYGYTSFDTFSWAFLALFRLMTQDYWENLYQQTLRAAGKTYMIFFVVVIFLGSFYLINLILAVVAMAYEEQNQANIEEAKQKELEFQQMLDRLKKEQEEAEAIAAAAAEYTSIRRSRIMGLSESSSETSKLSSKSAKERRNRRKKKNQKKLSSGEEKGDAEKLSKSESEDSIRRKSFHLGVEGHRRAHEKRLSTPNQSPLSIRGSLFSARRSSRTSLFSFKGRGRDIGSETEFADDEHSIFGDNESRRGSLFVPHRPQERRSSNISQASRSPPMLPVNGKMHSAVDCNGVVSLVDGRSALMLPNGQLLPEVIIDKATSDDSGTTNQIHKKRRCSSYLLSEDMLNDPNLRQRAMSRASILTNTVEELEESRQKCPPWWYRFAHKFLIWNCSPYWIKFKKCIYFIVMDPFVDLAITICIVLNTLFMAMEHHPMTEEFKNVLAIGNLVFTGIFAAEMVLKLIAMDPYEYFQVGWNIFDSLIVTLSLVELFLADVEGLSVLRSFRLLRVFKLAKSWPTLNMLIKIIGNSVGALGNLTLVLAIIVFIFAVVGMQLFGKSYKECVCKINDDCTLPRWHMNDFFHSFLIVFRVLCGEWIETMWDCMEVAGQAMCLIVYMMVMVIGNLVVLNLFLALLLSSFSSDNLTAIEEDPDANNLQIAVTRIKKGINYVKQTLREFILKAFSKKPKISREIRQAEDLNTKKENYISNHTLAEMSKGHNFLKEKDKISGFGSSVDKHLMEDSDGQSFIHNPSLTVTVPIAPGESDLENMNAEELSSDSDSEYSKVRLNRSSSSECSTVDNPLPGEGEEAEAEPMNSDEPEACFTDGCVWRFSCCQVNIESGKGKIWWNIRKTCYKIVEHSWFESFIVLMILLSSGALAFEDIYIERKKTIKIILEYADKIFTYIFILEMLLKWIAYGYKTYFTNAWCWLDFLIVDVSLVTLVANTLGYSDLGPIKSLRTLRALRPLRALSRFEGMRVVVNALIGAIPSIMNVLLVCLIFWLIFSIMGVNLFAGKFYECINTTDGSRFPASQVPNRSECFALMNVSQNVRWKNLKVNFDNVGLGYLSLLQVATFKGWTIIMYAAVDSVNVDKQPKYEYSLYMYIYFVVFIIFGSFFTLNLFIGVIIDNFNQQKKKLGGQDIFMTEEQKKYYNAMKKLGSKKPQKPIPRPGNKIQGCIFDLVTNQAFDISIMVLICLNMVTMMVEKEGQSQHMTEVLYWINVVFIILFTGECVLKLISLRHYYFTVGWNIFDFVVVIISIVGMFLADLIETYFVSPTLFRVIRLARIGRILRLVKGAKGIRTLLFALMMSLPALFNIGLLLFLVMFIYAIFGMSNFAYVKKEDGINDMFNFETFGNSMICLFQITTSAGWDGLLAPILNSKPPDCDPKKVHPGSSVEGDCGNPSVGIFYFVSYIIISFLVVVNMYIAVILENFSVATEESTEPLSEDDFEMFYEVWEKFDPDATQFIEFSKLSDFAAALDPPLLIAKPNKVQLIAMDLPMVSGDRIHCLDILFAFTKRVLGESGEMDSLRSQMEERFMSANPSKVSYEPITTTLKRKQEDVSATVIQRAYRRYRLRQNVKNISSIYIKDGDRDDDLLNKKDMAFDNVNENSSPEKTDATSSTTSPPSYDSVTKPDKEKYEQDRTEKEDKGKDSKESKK
T1 sequence (Q9NY46 whole entry): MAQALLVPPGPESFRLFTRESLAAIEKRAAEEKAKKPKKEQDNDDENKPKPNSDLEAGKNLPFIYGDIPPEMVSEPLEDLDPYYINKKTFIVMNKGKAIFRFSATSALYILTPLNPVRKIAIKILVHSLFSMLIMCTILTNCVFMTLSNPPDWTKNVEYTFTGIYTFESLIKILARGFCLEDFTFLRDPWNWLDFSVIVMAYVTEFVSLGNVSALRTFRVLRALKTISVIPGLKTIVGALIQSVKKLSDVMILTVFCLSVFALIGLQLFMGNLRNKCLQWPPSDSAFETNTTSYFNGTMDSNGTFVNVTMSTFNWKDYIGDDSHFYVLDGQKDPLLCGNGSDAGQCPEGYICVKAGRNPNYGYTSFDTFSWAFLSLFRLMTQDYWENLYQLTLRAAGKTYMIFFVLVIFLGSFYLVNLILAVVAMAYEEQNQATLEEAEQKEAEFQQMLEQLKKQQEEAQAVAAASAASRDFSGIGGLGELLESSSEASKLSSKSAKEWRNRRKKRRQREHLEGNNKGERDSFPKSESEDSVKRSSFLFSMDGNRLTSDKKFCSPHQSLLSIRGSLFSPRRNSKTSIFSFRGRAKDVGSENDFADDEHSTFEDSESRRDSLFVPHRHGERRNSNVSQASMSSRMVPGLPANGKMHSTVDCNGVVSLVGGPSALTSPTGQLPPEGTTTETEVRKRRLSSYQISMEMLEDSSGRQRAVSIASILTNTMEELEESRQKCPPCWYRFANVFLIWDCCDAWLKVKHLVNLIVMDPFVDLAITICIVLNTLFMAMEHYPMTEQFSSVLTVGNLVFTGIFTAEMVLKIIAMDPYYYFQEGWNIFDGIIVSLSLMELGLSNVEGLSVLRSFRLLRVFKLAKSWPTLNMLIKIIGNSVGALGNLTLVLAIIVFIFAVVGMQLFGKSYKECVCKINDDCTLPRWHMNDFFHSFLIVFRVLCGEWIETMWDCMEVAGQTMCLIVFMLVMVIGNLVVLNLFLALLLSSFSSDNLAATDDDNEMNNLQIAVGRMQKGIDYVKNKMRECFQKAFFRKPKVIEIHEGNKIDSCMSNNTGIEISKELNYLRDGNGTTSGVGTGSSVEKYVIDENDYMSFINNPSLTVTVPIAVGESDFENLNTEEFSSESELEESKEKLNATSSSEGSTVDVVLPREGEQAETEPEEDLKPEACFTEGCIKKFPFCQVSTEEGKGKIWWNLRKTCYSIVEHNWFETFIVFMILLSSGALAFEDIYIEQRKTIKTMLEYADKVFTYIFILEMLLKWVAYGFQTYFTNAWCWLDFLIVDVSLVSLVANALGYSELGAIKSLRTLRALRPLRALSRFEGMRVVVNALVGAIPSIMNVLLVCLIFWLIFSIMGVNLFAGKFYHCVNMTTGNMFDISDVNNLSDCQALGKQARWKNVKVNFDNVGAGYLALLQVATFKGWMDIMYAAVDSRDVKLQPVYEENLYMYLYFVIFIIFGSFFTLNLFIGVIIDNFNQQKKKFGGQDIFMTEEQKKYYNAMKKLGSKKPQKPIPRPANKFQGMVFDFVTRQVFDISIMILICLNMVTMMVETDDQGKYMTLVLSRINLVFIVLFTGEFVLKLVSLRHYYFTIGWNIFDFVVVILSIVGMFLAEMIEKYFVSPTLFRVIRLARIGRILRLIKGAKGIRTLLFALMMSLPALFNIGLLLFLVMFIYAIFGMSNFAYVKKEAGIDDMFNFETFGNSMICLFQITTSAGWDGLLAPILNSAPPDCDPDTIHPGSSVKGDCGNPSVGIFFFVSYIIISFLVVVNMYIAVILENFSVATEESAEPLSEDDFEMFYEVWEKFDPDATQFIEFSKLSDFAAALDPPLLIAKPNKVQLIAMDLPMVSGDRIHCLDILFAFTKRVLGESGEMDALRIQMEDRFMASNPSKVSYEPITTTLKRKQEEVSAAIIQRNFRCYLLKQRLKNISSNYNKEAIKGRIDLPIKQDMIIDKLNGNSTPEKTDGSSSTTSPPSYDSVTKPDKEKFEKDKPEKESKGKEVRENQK

`CCCCNc1ccc(C(=O)OCCN(C)C)cc1` [Tetracaine, reference compound] showed an inhibition at 3 µM [1, 5] of 0.75%, an inhibition at 3 µM [1, 6] of 3.41% and an inhibition at 3 µM [1, 7] of -1.92%. For the same molecule, the inhibition at 30 µM [1, 5] was 9.85%, the inhibition at 30 µM [1, 6] was 10.3% and the inhibition at 30 µM [1, 7] was 9.44%. It also gave an inhibition at 300 µM [1, 5] of 84.8%, an inhibition at 300 µM [1, 6] of 81.8% and an inhibition at 300 µM [1, 7] of 87.8%. For the same molecule, the inhibition at 3 µM [1, 8] was 56.1%, the inhibition at 3 µM [1, 9] was 56.1% and the inhibition at 3 µM [1, 10] was 56.1%. It also gave an inhibition at 30 µM [1, 8] of 100%, an inhibition at 30 µM [1, 9] of 98.9% and an inhibition at 30 µM [1, 10] of 101%. The inhibition at 300 µM [1, 8] was 101%, the inhibition at 300 µM [1, 9] was 101% and the inhibition at 300 µM [1, 10] was 102%. It also gave an inhibition at 3 µM [2, 11] of 3.28%, an inhibition at 3 µM [2, 12] of 4.33% and an inhibition at 3 µM [2, 13] of 2.23%. The inhibition at 30 µM [2, 11] was 16.2%, the inhibition at 30 µM [2, 12] was 20.5% and the inhibition at 30 µM [2, 13] was 11.9%. The inhibition at 300 µM [2, 11] was 89.7%, the inhibition at 300 µM [2, 12] was 91% and the inhibition at 300 µM [2, 13] was 88.4%. For the same molecule, the inhibition at 3 µM [2, 14] was 54.9%, the inhibition at 3 µM [2, 15] was 58.3% and the inhibition at 3 µM [2, 16] was 51.5%. For the same molecule, the inhibition at 30 µM [2, 14] was 95.7%, the inhibition at 30 µM [2, 15] was 96.6% and the inhibition at 30 µM [2, 16] was 94.8%. For the same molecule, the inhibition at 300 µM [2, 14] was 101%, the inhibition at 300 µM [2, 15] was 102% and the inhibition at 300 µM [2, 16] was 100%. The inhibition at 3 µM [3, 17] was 4.79%, the inhibition at 3 µM [3, 18] was 7.73% and the inhibition at 3 µM [3, 19] was 1.85%. The inhibition at 30 µM [3, 17] was 34.7%, the inhibition at 30 µM [3, 18] was 34.7% and the inhibition at 30 µM [3, 19] was 34.7%. The inhibition at 300 µM [3, 17] was 75%, the inhibition at 300 µM [3, 18] was 68.2% and the inhibition at 300 µM [3, 19] was 81.8%. For the same molecule, the inhibition at 3 µM [3, 20] was 86.4%, the inhibition at 3 µM [3, 21] was 80.8% and the inhibition at 3 µM [3, 22] was 91.9%. It also gave an inhibition at 30 µM [3, 20] of 99.2%, an inhibition at 30 µM [3, 21] of 95.7% and an inhibition at 30 µM [3, 22] of 103%. For the same molecule, the inhibition at 300 µM [3, 20] was 97.9%, the inhibition at 300 µM [3, 21] was 91.3% and the inhibition at 300 µM [3, 22] was 104%. It also gave an inhibition at 3 µM [4, 23] of 8.82%, an inhibition at 3 µM [4, 24] of 11.3% and an inhibition at 3 µM [4, 25] of 6.36%. The inhibition at 30 µM [4, 23] was 27.6%, the inhibition at 30 µM [4, 24] was 27.5% and the inhibition at 30 µM [4, 25] was 27.8%. For the same molecule, the inhibition at 300 µM [4, 23] was 95.1%, the inhibition at 300 µM [4, 24] was 94.6% and the inhibition at 300 µM [4, 25] was 95.6%. For the same molecule, the inhibition at 3 µM [4, 26] was 47.5%, the inhibition at 3 µM [4, 27] was 45.9% and the inhibition at 3 µM [4, 28] was 49.1%. It also gave an inhibition at 30 µM [4, 26] of 98.6%, an inhibition at 30 µM [4, 27] of 98% and an inhibition at 30 µM [4, 28] of 99.2%. The inhibition at 300 µM [4, 26] was 101%, the inhibition at 300 µM [4, 27] was 101% and the inhibition at 300 µM [4, 28] was 102%.
